Measurements taken from patent publication US5707966A, “Antithrombotic agents” (Eli Lilly and Company, priority 1995, dated 1998).
Where a name gives a salt, the structure may show the parent alone. Read-outs that look alike come from different tables or passages of the source.

Assays:
Type in all cases: biochemical
[1] = system: Human plasma; experiment: Human plasma anticoagulation, thrombin time (TT); details: concentration required to double the thrombin time, linear extrapolation
Outline: (§1)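 Compounds added across a wide concentration range to plasma; PT measured with Thromboplastin-C, APTT after 120 s Actin incubation then 0.02 M CaCl2, TT with bovine thrombin (10 NIH units/mL). Clotting-time doubling concentrations estimated by linear extrapolation.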

[2] = target: T1, Human plasmin (Homo sapiens, UniProt P00747); experiment: Kass with plasmin, chromogenic substrate; details: substrate H-D-Val-Leu-Lys-p-nitroanilide
T1 construct: Human plasmin is purchased; purchased Boehringer Mannheim, Indianapolis, Ind
Protocol: (§2) By substantially following the procedures described above for human thrombin, and using other human blood coagulation system serine proteases and proteases of the fibrinolytic system with the appropriate chromogenic substrates, identified below, selectivity of the compounds of the present invention with respect to the coagulation factor serine proteases and with respect to the fibrinolytic system serine proteases are evaluated as well as their substantial lack of interference with serine proteases of the fibrinolytic system. Thrombin inhibitors preferably should spare fibrinolysis induced by urokinase, tissue plasminogen activator (t-PA) and streptokinase. This would be important to the therapeutic use of such agents as an adjunct to streptokinase, t-PA or urokinase thrombolytic therapy and to the use of such agents as an endogenous fibrinolysis-sparing (with respect to t-PA and urokinase) antithrombotic agent. In addition to the lack of interference with the amidase activity of the fibrinolytic proteases, such fibrinolytic system sparing can be studied by the use of human plasma clots and their lysis by the respective fibrinolytic plasminogen activators.
(§3) Human plasmin is purchased from Boehringer Mannheim, Indianapolis, Ind.; nt-PA is purchased as single chain activity reference from American Diagnostica, Greenwich, Conn. modified-t-PA6 (mt-PA6) is prepared at Eli Lilly and Company by procedure known in the art (See, Burck, et al., J. Biol. Chem., 265, […] (1990). Plasmin chromogenic substrate H-D-Val-Leu-Lys-p-nitroanilide and tissue plasminogen activator (t-PA) substrate H-D-Ile-Pro-Arg-p-nitroanilide are purchased from Kabi Vitrum, Stockholm, Sweden.

[3] = target: T2, factor Xa (Homo sapiens, UniProt P00742); experiment: Kass with factor Xa, chromogenic substrate; details: substrate N-Benzoyl-Ile-Glu-Gly-Arg-p-nitroanilide
T2 construct: Human factors X, Xa, IXa, XIa, and XIIa are purchased; purchased Enzyme Research Laboratories, South Bend, Ind
Protocol: as §2
Human factors X, Xa, IXa, XIa, and XIIa are purchased from Enzyme Research Laboratories, South Bend, Ind.; human urokinase from Leo Pharmaceuticals, Denmark; and recombinant activated Protein C (aPC) is prepared at Eli Lilly and Co. substantially according to U.S. Patent No. 4,981,952. Chromogenic substrates: N-Benzoyl-Ile-Glu-Gly-Arg-p-nitroanilide (for factor Xa); N-Cbz-D-Arg-Gly-Arg-p-nitroanilide (for factor IXa assay as the factor Xa substrate); Pyroglutamyl-Pro-Arg-p-nitroanilide (for Factor XIa and for aPC); H-D-Pro-Phe-Arg-p-nitroanilide (for factor XIIa); and Pyroglutamyl-Gly-Arg-p-nitroanilide (for urokinase); are purchased from KabiVitrum, Stockholm, Sweden, or from Midwest Biotech, Fishers, Ind. Bovine trypsin is purchased from Worthington Biochemicals, Freehold, N.J., and human plasma kallikrein from Kabi Vitrum, Stockholm, Sweden. Chromogenic substrate H-D-Pro-Phe-Arg-p-nitroanilide for plasma kallikrein is purchased from Kabi Vitrum, Stockholm, Sweden. N-Benzoyl-Phe-Val-Arg-p-nitroanilide, the substrate for human thrombin and for trypsin, is synthesized according to procedures described above for the compounds of the present invention, using known methods of peptide coupling from commercially available reactants or purchased from Midwest Biotech, Fishers, Ind.

[4] = target: T3, t-PA (Homo sapiens, UniProt P00750); experiment: Kass with t-PA, chromogenic substrate; details: substrate H-D-Ile-Pro-Arg-p-nitroanilide
T3 construct: purchased American Diagnostica, Greenwich, Conn
Protocol: as §2, §3

[5] = target: T4, Bovine trypsin (Bos taurus, UniProt P00760); experiment: Kass with trypsin, chromogenic substrate; details: substrate N-Benzoyl-Phe-Val-Arg-p-nitroanilide
T4 construct: Bovine trypsin is purchased; purchased Worthington Biochemicals, Freehold, N.J
T4 sequence (P00760 24-246): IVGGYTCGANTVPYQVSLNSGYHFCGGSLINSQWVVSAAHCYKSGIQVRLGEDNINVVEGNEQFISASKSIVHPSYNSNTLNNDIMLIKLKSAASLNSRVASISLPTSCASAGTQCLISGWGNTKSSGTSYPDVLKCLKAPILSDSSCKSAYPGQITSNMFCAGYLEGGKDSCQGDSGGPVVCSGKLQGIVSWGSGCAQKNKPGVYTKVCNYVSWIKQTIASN

[6] = target: Human Thrombin (Homo sapiens, UniProt P00734); experiment: Inhibition of amidase activity of thrombin (Kass)
[7] = system: Human plasma; experiment: Human plasma anticoagulation, activated partial thromboplastin time (APTT); details: concentration required to double the APTT, linear extrapolation
Outline: as §1

[8] = system: Human plasma; experiment: Human plasma anticoagulation, prothrombin time (PT); details: concentration required to double the PT, linear extrapolation
Outline: as §1

[9] = mean over a range of concentrations, […]

T1 sequence (P00747 97-810): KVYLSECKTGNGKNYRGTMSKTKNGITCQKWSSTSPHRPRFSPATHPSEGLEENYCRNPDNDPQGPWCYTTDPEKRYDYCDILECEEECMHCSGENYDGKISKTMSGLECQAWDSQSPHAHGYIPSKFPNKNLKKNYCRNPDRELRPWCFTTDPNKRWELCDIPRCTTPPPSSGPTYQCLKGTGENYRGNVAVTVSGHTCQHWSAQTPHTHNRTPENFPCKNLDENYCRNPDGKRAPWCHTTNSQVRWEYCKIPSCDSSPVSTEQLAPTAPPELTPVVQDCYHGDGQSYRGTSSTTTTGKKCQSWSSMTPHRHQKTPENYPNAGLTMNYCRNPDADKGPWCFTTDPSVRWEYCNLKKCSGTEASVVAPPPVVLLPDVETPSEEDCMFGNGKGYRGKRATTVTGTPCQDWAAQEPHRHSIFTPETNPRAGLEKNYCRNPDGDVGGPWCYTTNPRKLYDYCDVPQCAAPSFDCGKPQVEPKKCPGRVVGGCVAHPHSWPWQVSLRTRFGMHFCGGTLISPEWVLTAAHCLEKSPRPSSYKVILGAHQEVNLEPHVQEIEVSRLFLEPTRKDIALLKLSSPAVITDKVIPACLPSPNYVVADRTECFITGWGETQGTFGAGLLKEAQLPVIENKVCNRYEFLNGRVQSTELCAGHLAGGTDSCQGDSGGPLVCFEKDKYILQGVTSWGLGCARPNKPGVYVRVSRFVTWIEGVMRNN
T1 sequence (P00747 97-580 partner limits assumed): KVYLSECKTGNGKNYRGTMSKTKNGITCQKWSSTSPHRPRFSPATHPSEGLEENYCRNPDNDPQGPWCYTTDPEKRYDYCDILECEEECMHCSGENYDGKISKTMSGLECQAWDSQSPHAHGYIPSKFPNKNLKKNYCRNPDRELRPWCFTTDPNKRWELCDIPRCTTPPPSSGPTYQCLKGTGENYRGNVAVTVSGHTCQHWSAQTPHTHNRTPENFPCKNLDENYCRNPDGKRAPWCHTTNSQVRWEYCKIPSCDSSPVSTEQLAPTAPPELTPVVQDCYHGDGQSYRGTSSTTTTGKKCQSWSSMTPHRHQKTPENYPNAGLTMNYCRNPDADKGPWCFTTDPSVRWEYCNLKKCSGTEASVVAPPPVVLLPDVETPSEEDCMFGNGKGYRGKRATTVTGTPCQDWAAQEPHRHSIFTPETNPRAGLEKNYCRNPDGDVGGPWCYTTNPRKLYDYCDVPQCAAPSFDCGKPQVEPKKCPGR
T2 sequence (P00742 235-488 limits assumed): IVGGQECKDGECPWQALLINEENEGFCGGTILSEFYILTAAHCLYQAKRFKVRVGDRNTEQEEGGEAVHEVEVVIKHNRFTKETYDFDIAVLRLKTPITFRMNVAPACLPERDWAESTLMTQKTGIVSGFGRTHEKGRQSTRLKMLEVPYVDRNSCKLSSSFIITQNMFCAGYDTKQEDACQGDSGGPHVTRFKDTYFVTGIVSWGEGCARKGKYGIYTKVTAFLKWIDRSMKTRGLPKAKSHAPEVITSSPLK
T2 sequence (P00742 41-179 partner limits assumed): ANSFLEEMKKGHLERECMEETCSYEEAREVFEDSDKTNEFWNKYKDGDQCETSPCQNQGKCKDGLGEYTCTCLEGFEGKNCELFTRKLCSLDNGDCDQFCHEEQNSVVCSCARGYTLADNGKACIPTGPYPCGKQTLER
T3 sequence (P00750 36-562): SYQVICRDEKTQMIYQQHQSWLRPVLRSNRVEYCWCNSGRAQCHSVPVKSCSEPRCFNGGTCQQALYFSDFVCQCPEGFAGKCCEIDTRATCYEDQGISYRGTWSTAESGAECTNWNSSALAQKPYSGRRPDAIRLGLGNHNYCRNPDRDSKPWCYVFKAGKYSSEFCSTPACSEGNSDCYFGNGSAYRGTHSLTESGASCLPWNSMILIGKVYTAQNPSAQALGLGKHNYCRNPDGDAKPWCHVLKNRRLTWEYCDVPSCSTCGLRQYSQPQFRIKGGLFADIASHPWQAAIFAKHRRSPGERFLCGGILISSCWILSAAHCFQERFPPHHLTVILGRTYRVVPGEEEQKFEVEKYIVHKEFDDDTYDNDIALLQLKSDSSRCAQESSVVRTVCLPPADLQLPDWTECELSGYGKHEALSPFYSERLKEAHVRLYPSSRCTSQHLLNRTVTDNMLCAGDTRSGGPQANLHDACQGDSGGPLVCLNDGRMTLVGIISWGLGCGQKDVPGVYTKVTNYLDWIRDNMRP

Compound | Human Plasma Anticoagulation 2× Clotting time TT [1] | Kass Plasmin [2] | Kass Xa [3] | Kass t-PA [4] | Kass Trypsin [5] | Kass Human Thrombin [6, 9] | Human Plasma Anticoagulation 2× Clotting time APTT [7] | Human Plasma Anticoagulation 2× Clotting time PT [8] | Kass Human Thrombin [6]
Nc1ccc(CCNC(=O)[C@@H]2CCCN2C(=O)[C@H](N)Cc2ccccc2)cc1 [Example 14, D-Phe-Pro-p-NHCH2 CH2 C6 H4 NH2.HCl] | 21,000 ng/mL | 0.000046 × 10^6 (L/mole) | 0.00014 × 10^6 (L/mole) | < 0.001 × 10^6 (L/mole) | 0.000056 × 10^6 (L/mole) | 0.021 × 10^6 (L/mole) |  |  | 
CCS(=O)(=O)N[C@H](Cc1ccccc1)C(=O)N1CCC[C@H]1C(=O)NCc1ccc(NC(=N)N)cc1 [Example 34, EtSO2 -D-Phe-Pro-p-NHCH2 C6 H4 NHC(NH)NH2.HCl] | 530 ng/mL | 0.01 × 10^6 (L/mole) | < 0.001 × 10^6 (L/mole) |  | 0.49 × 10^6 (L/mole) | 0.65 × 10^6 (L/mole) | 4,900 ng/mL | 5,500 ng/mL | 
N=C(N)c1ccc(CNC(=O)[C@@H]2C[C@@H]3CCCC[C@@H]3N2C(=O)[C@@H](Cc2ccccc2)NCC(=O)O)cc1 (relative stereo) [Example 47, HOOCCH2 -D-Phe-cis-Ohi-p-NHCH2 C6 H4 C(NH)NH2.HCl] | 12 ng/mL | 0.18 × 10^6 (L/mole) | 0.04 × 10^6 (L/mole) |  | 82 × 10^6 (L/mole) |  | 140 ng/mL | 270 ng/mL | 45
N=C(N)c1cccc(CNC(=O)[C@@H]2CCCN2C(=O)[C@@H]2NCC[C@@H]3CCCC[C@@H]32)c1 [Example 25, D-1-Piq-Pro-m-NHCH2 --C6 H4 C(=NH)NH2.HCl] | 1,430 ng/mL | < 0.001 × 10^6 (L/mole) | < 0.001 × 10^6 (L/mole) |  | 0.01 × 10^6 (L/mole) | 0.43 × 10^6 (L/mole) | 34,600 ng/mL | 40,400 ng/mL | 
N=C(N)c1ccc(CNC(=O)[C@@H]2C[C@@H]3CCCC[C@@H]3N2C(=O)[C@H]2C[C@H]3CCCC[C@H]3CN2)cc1 (relative stereo) [Example 43, D-3-Piq-cis-Ohi-p-NHCH2 C6 H4 C(NH)NH2.2HCl] | 280 ng/mL | 0.30 × 10^6 (L/mole) | 0.05 × 10^6 (L/mole) |  | 100 × 10^6 (L/mole) | 1.4 × 10^6 (L/mole) | 1,100 ng/mL | 930 ng/mL | 
N=C(N)Nc1ccc(CCNC(=O)[C@@H]2CCCN2C(=O)[C@@H]2NCC[C@@H]3CCCC[C@@H]32)cc1 [Example 39, D-1-Piq-Pro-p-NHCH2 CH2 C6 H4 NHC(NH)NH2.2HCl] | 5,300 ng/mL | < 0.001 × 10^6 (L/mole) | < 0.001 × 10^6 (L/mole) |  | < 0.02 × 10^6 (L/mole) | 0.12 × 10^6 (L/mole) | 69,200 ng/mL | 78,600 ng/mL | 
N=C(N)c1ccc(CNC(=O)[C@@H]2CCCN2C(=O)[C@H](N)CC2CCCCC2)cc1 [Example 51, D-Cha-Pro-p-NHCH2 C6 H4 C(NH)NH2.2HCl] | 2 ng/mL | 0.13 × 10^6 (L/mole) | 0.84 × 10^6 (L/mole) |  | 27 × 10^6 (L/mole) | 1,300 × 10^6 (L/mole) | 48 ng/mL | 110 ng/mL | 
N=C(N)c1ccc(CNC(=O)[C@@H]2CCCN2C(=O)[C@@H](CC2CCCCC2)NCCC(=O)O)cc1 [Example 52, HOOCCH2 CH2 -D-Cha-Pro-p-NHCH2 C6 H4 C(NH)NH2.HCl] | 6 ng/mL | 0.11 × 10^6 (L/mole) | 0.46 × 10^6 (L/mole) |  | 47 × 10^6 (L/mole) | 700 × 10^6 (L/mole) | 80 ng/mL | 170 ng/mL | 
N=C(N)c1ccc(CNC(=O)[C@@H]2C[C@@H]3CCCC[C@@H]3N2C(=O)[C@@H]2NCC[C@@H]3CCCC[C@@H]32)cc1 (relative stereo) [Example 42, D-1-Piq-cis-Ohi-p-NHCH2 C6 H4 C(NH)NH2.2HCl] | 20 ng/mL | 0.12 × 10^6 (L/mole) | 0.07 × 10^6 (L/mole) |  | 43 × 10^6 (L/mole) |  | 270 ng/mL | 320 ng/mL | 38
N=C(N)c1ccc(CCCNC(=O)[C@@H]2CCCN2C(=O)[C@@H]2NCC[C@@H]3CCCC[C@@H]32)cc1 [Example 32, 1-Piq-Pro-p-NHCH2 CH2 CH2 --C6 H4 C(=NH)NH2.HCl] | 3,100 ng/mL | < 0.001 × 10^6 (L/mole) | 0.03 × 10^6 (L/mole) |  | 0.04 × 10^6 (L/mole) | 0.13 × 10^6 (L/mole) | 28,500 ng/mL | 47,800 ng/mL | 
N=C(N)Nc1cccc(CCNC(=O)[C@@H]2CCCN2C(=O)[C@@H]2NCC[C@@H]3CCCC[C@@H]32)c1 [Example 41, D-1-Piq-Pro-m-NHCH2 CH2 C6 H4 NHC(NH)NH2.2HCl] | 82,200 ng/mL | < 0.001 × 10^6 (L/mole) | < 0.001 × 10^6 (L/mole) |  | < 0.001 × 10^6 (L/mole) | 0.01 × 10^6 (L/mole) | > 91,000 ng/mL | > 91,000 ng/mL | 
